# Laboratory results reported in patent publication US10610602B2, “Tumor cell-specific responsive self-assembling drug nanoconjugate” (KOREA INSTITUTE OF SCIENCE AND TECHNOLOGY, priority 2017, dated 2020).
# “Also recorded” adds a separate entry of the source. Read-outs that look alike come from different tables or passages of the source. Residues, ends and D or L forms follow the SMILES beside them. No end group written: not given here. *: point of attachment. Doxorubicin(3'-N) = COc1cccc2c1C(=O)c1c(O)c3c(c(O)c1C2=O)C[C@@](O)(C(=O)CO)C[C@@H]3O[C@H]1C[C@H](N*)[C@H](O)[C@H](C)O1
# Key:
# [1] = tested on: H9C2 cells (normal cells); format: cell-based, Rattus
# Method: (§1) First, HT-29 cells were plated in a 96-well plate at a density of 1×10^4 cells/well. […] Then, […] of CCK solution was added to each well. After further culture for 30 min, the absorbance of each 96-well plate at 450 nm was analyzed using a microplate reader (VERSAmax™, Molecular Devices Corp., Sunnyvale, Calif.). For comparison, the cell viabilities (%) of H9C2 cells (normal cells) were measured in the same manner as described above.
# [2] = rat, in vivo
# [3] = Non-enzymatic hydrolysis in PBS buffer only, HPLC; format: physicochemical; settings: 37° C., 9 h
# Method: The drug conjugate of Example 1 was allowed to react with other enzymes (10 μg/ml cathepsins D, E, and L) and PBS buffer only (in this case, a non-enzymatic hydrolysis product was obtained) and the reaction products were analyzed by HPLC at 37° C. for 9 h.
# hiPSC-CMs = experiment: Multi-electrode array (MEA) analysis; format: cell-based, human; settings: FRRG-DOX 0.2 μM; doxorubicin 0.1 μM; compared to the baseline
# Method: Multi-electrode array analysis was conducted by the following procedure. First, human induced pluripotent stem cell-derived cardiomyocytes (hiPSC-CMs, Cellular Dynamics International [CDI], Madison, Wis., USA) were thawed in a 100 mm culture dish. After 1 week, the thawed hiPSC-CMs were plated in an MEA plate coated with fibronectin solution (50 μg/ml). On day 2 after thawing, the plating medium was replaced with a maintenance medium (CDI). Maintenance media were replaced with new ones every 2-3 days. Only 50% of the culture media were replaced with new ones. 2 weeks after plating in the plate, field potentials of spontaneously beating cardiomyocytes were recorded using a Maestro system (Axion Biosystems Inc., Atlanta, Ga., USA). The waveforms of the extracellular field potentials were recorded 10 min after the equilibration period. Inter-spike interval and extracellular field potential duration (FPD) were analyzed and quantified. To minimize the influence of the beat rate on FPD, corrected FPD (FPDcF) was calculated using Fridericia's formula 1: FPDcF=FPD/[inter−spike interval]1/3 (1)
# HT29 tumor [4] = experiment: Doxorubicin accumulation in tumor tissues after intravenous administration, near-infrared fluorescence
# Method: (§2) In this example, the in vivo anticancer effects of doxorubicin (Free DOX) and FRRG-DOX (SEQ ID NO: 7) of Example 1 were investigated. First, 1×10^7 HT-29 cells were directly injected into the right flank of each tumor animal model constructed in 1) (n=4 per group). When the tumor size reached ˜250-300 mm3, doxorubicin (Free DOX, 5 mg/kg) and FRRG DOX (SEQ ID NO: 7) of Example 1 (5 mg/kg) were administered intravenously once every three days for 15 days.
# (§3) The therapeutic efficacies of Free DOX, FRRG-DOX (SEQ ID NO: 7), and the control were compared by measuring the tumor volumes (maximum diameter×minimum diameter 2×0.53) for 15 days. The viabilities and weights of the tumor animal models were measured once a day for 15 days. The accumulations of Free DOX and FRRG-DOX (SEQ ID NO: 7) in the tumor tissues of the tumor animal models were monitored using IVIS Lumina Series III (PerkinElmer, Massachusetts, USA). The fluorescence intensities of Free DOX and FRRG-DOX (SEQ ID NO: 7) in the tumor tissues were quantified using the Living Image software (PerkinElmer, Massachusetts, USA).
# HT29 tumor [5] = settings: for viability (survival rate) of animal tumor models: for 16 days, FIG. 4C; for apoptosis in organ tissues (annexin V staining): heart, spleen, tumor tissues, FIG. 4D
# Method: as §2, with “˜200 mm^3,” for “˜250-300 mm3,”, “by tail vein injection” for “intravenously”
# as §3
# Annexin V staining was performed to confirm that apoptosis occurred in tumor tissues excised from the tumor animal models. First, section slides (10 μm) of the excised tumor tissues were washed three times with DPBS, incubated with annexin V solution (200 μl of a binding buffer containing 5 μl of annexin V-Cy5.5) at 37° C. for 20 min, incubated with DAPI at room temperature for 15 min, placed on cover glass, and observed under a confocal laser microscope.
# [6] = Heart damage markers in blood samples; settings: versus control (saline), FIG. 4E
# [7] = Electrocardiography (ECG) analysis; format: in vivo, ICR mice; settings: intravenous; 5 mg/kg doxorubicin or 10 mg/kg FRRG-doxorubicin; versus control
# Method: ECG analysis was performed under the approval of the Institutional Animal Care and Use Committee at the Korea Institute of Toxicology. All procedures were performed according to the National Institutes of Health guidelines for the care and use of laboratory animals. A mixture of isoflourane and oxygen as an anaesthetic gas was injected at a rate of 2 cc/min to ICR mice (25-35 g, Orient Bio Inc., Seoul, Korea). ECG was measured before injection of the anaesthetic gas into an animal bio amp (ADinstruments Pty Ltd, Bella Vista, Australia). The measured ECG was defined as baseline. For 6 h after injection of the anaesthetic gas, ECG was measured. All mice were injected intravenously with saline, 5 mg/kg doxorubicin (in saline) or 10 mg/kg FRRG-doxorubicin (SEQ ID NO: 7) (Example 1) (in saline). The measured ECG data were analyzed using the LabChart 8 software (ADinstruments Pty Ltd, Bella Vista, Australia). Corrected QT (QTc) was calculated using Van de Water's formula 2 and Bazett's formula 3: QTc−V=0.087[(60/HR)−1] (2) QTc−B=QT/(RR)1/2 (3)
# cells = experiment: Cellular and nuclear uptake of drug conjugates of Examples 2-4, confocal microscopy; format: cell-based; settings: for absorption into cells / antitumor effects or intracellular uptake effects: FIGS. 5C and 5D
# From the text: In FIG. 5D, “Cytosol “and “Nucleus” indicate the fluorescence intensities of DOX measured in cytosol and cell nuclei, respectively.
# [8] = Nanoparticle size by dynamic light scattering; format: physicochemical; settings: FIG. 5B
# Method: The size distribution was measured using Zetasizer Nano ZS (Malvern Instruments, Worcestershire, U.K).
# HT-29 cells = experiment: In vitro cell viability (CCK); format: cell-based, human; settings: HT29, FIG. 5E
# Method: as §1
# [9] = 5 mg/kg tail vein once every three days for 15 days
# [10] = intravenous, DAPI-stained tissue sections, FIG. 3G
Compound,FPD (hiPSC-CMs),FPDcF (hiPSC-CMs),toxicity to normal cells in tumor animal models (HT29 tumor [5]; [9]),viability (survival rate) of animal tumor models (HT29 tumor [5]),apoptosis in organ tissues (annexin V staining) (HT29 tumor [5]),doxorubicin accumulation in tumor tissues (HT29 tumor [4]; [10]),absorption into cells (cells),antitumor effects or intracellular uptake effects (cells),measured sizes of the nanoparticles [8],further results
COc1cccc2c1C(=O)c1c(O)c3c(c(O)c1C2=O)C[C@@](O)(C(=O)CO)C[C@@H]3O[C@H]1C[C@H](NC(=O)CNC(=O)[C@H](CCCNC(=N)N)NC(=O)[C@H](CCCNC(=N)N)NC(=O)[C@H](Cc2ccccc2)NC(C)=O)[C@H](O)[C@H](C)O1 [FRRG-DOX] (Ac-FRRG-{Doxorubicin(3'-N)}),remained substantially unchanged,remained substantially unchanged,no toxicity was observed,100%,apoptosis was observed only in the tumor tissues,,,,,"cell viability compared with group treated with doxorubicin alone (Free DOX) [1]: significant difference in cell viability; levels of markers indicative of heart damage (hs troponin-T, Troponin-I, CK-MM, CPK total) [2]: about two times lower than or comparable to those in the control; stability in phosphate buffered saline [3]: very stable in phosphate buffered saline; doxorubicin accumulation in tumor tissues (HT29 tumor [4]; mouse, in vivo, iv): doxorubicin was accumulated in the tumor tissues"
COc1cccc2c1C(=O)c1c(O)c3c(c(O)c1C2=O)C[C@@](O)(C(=O)CO)C[C@@H]3O[C@H]1C[C@H](NC(=O)CNC(=O)[C@H](CCCNC(=N)N)NC(=O)[C@H](CCCNC(=N)N)NC(C)=O)[C@H](O)[C@H](C)O1 [RRG-DOX],,,,,,could not be effectively accumulated in tissues,,,,"fluorescence intensity of doxorubicin in excised tumor tissues (HT29 tumor [4]; 5 mg/kg intravenous, FIG. 3E/3F): low fluorescence intensity"
COc1cccc2c1C(=O)c1c(O)c3c(c(O)c1C2=O)C[C@@](O)(C(=O)CO)C[C@@H]3O[C@H]1C[C@H](N)[C@H](O)[C@H](C)O1 [doxorubicin],significantly low compared to the baseline,significantly low compared to the baseline,Toxicity to normal cells was observed,mortality began to increase rapidly,"apoptosis was observed in all of the heart, spleen, and tumor tissues",could not be effectively accumulated in tissues,,,,"levels of markers indicative of heart damage (hs troponin-T, Troponin-I, CK-MM, CPK total) [6]: higher levels of all markers; QTc values [7]: extended compared to those measured in the control; weight of the tumor animal models (HT29 tumor [5]; 5 mg/kg tail vein once every three days): began to decrease; inhibition of tumor growth (tumor volume) (HT29 tumor [5]; [9]): significantly inhibit tumor growth"
FRRGGGGG-DOX (FRRGGGGG-doxorubicin),,,,,,,not readily absorbed into cells,showed antitumor effects or intracellular uptake effects,300-700 nm,
GGFRRGGG-DOX (GGFRRGGG-doxorubicin),,,,,,,readily absorbed into cells,showed antitumor effects or intracellular uptake effects,50-200 nm,uptake into cell nuclei relative to drug conjugates of Examples 1 and 2 (cells; FIG. 5D): 10 times lower
GGGGFRRG-DOX (GGGGFRRG-doxorubicin),,,,,,,,showed antitumor effects or intracellular uptake effects,200-600 nm,antitumor effect (cell viability of HT29) (HT-29 cells): same antitumor effect as DOX; also recorded: most effective in antitumor action
